Type in all cases: functional
Experiment [1] relates to Enterococcus faecium. The experiment is described as follows: Synergistic antibiofilm activity against vancomycin-resistant Enterococcus faecium ATCC 700221 in TSB broth assessed as dispersal of glucose-induced biofilm by measuring fractional inhibitory concentration index preincubated with glucose for 48 hrs followed by compound addition and further incubated for 24 hrs in presence of Nitroxoline by crystal violet staining based checkerboard assay.

Experiment [2] has as its system Enterococcus faecalis. Nature of the experiment: Synergistic antibiofilm activity against vancomycin-resistant Enterococcus faecalis ATCC 51575 in TSB broth assessed as dispersal of glucose-induced biofilm preincubated with glucose for 48 hrs followed by compound addition and further incubated for 24 hrs in presence of Bithionol by crystal violet staining based checkerboard assay.

Experiment [3] deals with Staphylococcus aureus. Nature of the experiment: Synergistic antibiofilm activity against methicillin-resistant Staphylococcus aureus USA 300 in TSB broth assessed as dispersal of glucose-induced biofilm preincubated with glucose for 48 hrs followed by compound addition and further incubated for 24 hrs in presence of Nitroxoline by crystal violet staining based checkerboard assay.

Experiment [4] has as its system Enterococcus faecium. Nature of the experiment: Synergistic antibiofilm activity against vancomycin-resistant Enterococcus faecium ATCC 700221 in TSB broth assessed as dispersal of glucose-induced biofilm by measuring fractional inhibitory concentration index preincubated with glucose for 48 hrs followed by compound addition and further incubated for 24 hrs in presence of Bithionol by crystal violet staining based checkerboard assay.

Experiment [5] deals with Enterococcus faecium. Nature of the experiment: Synergistic antibiofilm activity against vancomycin-resistant Enterococcus faecium ATCC 700221 in TSB broth assessed as dispersal of glucose-induced biofilm preincubated with glucose for 48 hrs followed by compound addition and further incubated for 24 hrs in presence of Bithionol by crystal violet staining based checkerboard assay.

The test system of experiment [6] is Enterococcus faecium. The experiment is described as follows: Synergistic antibiofilm activity against vancomycin-resistant Enterococcus faecium ATCC 700221 in TSB broth assessed as dispersal of glucose-induced biofilm […] preincubated with glucose for 48 hrs followed by compound addition and measured after 24 hrs by crystal violet staining based checkerboard assay.

The test system of experiment [7] is Staphylococcus aureus. The experiment is described as follows: Antibiofilm activity against methicillin-resistant Staphylococcus aureus USA 300 in TSB broth assessed as dispersal of glucose-induced biofilm preincubated with glucose for 48 hrs followed by compound addition and measured after 24 hrs by crystal violet staining based analysis.
Experiment [8] concerns Staphylococcus aureus. The experiment is described as follows: Synergistic antibiofilm activity against methicillin-resistant Staphylococcus aureus USA 300 in TSB broth assessed as dispersal of glucose-induced biofilm preincubated with glucose for 48 hrs followed by compound addition and further incubated for 24 hrs in presence of Bithionol by crystal violet staining based checkerboard assay.

In experiment [9] the test system is Enterococcus faecium. The experiment is described as follows: Synergistic antibiofilm activity against vancomycin-resistant Enterococcus faecium ATCC 700221 in TSB broth assessed as dispersal of glucose-induced biofilm by measuring Nitroxoline MBEC preincubated with glucose for 48 hrs followed by compound addition and measured after 24 hrs by crystal violet staining based checkerboard assay.

Experiment [10] relates to Enterococcus faecalis. Nature of the experiment: Synergistic antibiofilm activity against vancomycin-resistant Enterococcus faecalis ATCC 51575 in TSB broth assessed as dispersal of glucose-induced biofilm preincubated with glucose for 48 hrs followed by compound addition and further incubated for 24 hrs in presence of Nitroxoline by crystal violet staining based checkerboard assay.

Experiment [11] deals with Enterococcus faecalis. The experiment is described as follows: Synergistic antibiofilm activity against vancomycin-resistant Enterococcus faecalis ATCC 51575 in TSB broth assessed as dispersal of glucose-induced biofilm by measuring fractional inhibitory concentration index preincubated with glucose for 48 hrs followed by compound addition and further incubated for 24 hrs in presence of Bithionol by crystal violet staining based checkerboard assay.

The test system of experiment [12] is Enterococcus faecalis. Nature of the experiment: Synergistic antibiofilm activity against vancomycin-resistant Enterococcus faecalis ATCC 51575 in TSB broth assessed as dispersal of glucose-induced biofilm by measuring Nitroxoline MBEC preincubated with glucose for 48 hrs followed by compound addition and measured after 24 hrs by crystal violet staining based checkerboard assay.

In experiment [13] the test system is Enterococcus faecium. Nature of the experiment: Synergistic antibiofilm activity against vancomycin-resistant Enterococcus faecium ATCC 700221 in TSB broth assessed as dispersal of glucose-induced biofilm preincubated with glucose for 48 hrs followed by compound addition and further incubated for 24 hrs in presence of Nitroxoline by crystal violet staining based checkerboard assay.

In experiment [14] the test system is Enterococcus faecalis. Nature of the experiment: Synergistic antibiofilm activity against vancomycin-resistant Enterococcus faecalis ATCC 51575 in TSB broth assessed as dispersal of glucose-induced biofilm by measuring fractional inhibitory concentration index preincubated with glucose for 48 hrs followed by compound addition and further incubated for 24 hrs in presence of Nitroxoline by crystal violet staining based checkerboard assay.

Experiment [15] concerns Staphylococcus aureus. The experiment is described as follows: Synergistic antibiofilm activity against methicillin-resistant Staphylococcus aureus USA 300 in TSB broth assessed as dispersal of glucose-induced biofilm by measuring fractional inhibitory concentration index preincubated with glucose for 48 hrs followed by compound addition and further incubated for 24 hrs in presence of Bithionol by crystal violet staining based checkerboard assay.

Experiment [16] has as its system Enterococcus faecium. The experiment is described as follows: Antibiofilm activity against vancomycin-resistant Enterococcus faecium ATCC 700221 in TSB broth assessed as dispersal of glucose-induced biofilm preincubated with glucose for 48 hrs followed by compound addition and measured after 24 hrs by crystal violet staining based analysis.
For experiment [17], the system named is Enterococcus faecalis. The experiment is described as follows: Antibiofilm activity against vancomycin-resistant Enterococcus faecalis ATCC 51575 in TSB broth assessed as dispersal of glucose-induced biofilm preincubated with glucose for 48 hrs followed by compound addition and measured after 24 hrs by crystal violet staining based analysis.
The subject of experiment [18] is Staphylococcus aureus. Nature of the experiment: Synergistic antibiofilm activity against methicillin-resistant Staphylococcus aureus USA 300 in TSB broth assessed as dispersal of glucose-induced biofilm by measuring fractional inhibitory concentration index preincubated with glucose for 48 hrs followed by compound addition and further incubated for 24 hrs in presence of Nitroxoline by crystal violet staining based checkerboard assay.

Experiment [19] concerns Staphylococcus aureus. Nature of the experiment: Synergistic antibiofilm activity against methicillin-resistant Staphylococcus aureus USA 300 in TSB broth assessed as dispersal of glucose-induced biofilm by measuring Nitroxoline MBEC preincubated with glucose for 48 hrs followed by compound addition and measured after 24 hrs by crystal violet staining based checkerboard assay.

The subject of experiment [20] is Staphylococcus aureus. Nature of the experiment: Synergistic antibiofilm activity against methicillin-resistant Staphylococcus aureus USA 300 in TSB broth assessed as dispersal of glucose-induced biofilm by measuring Bithionol MBEC preincubated with glucose for 48 hrs followed by compound addition and measured after 24 hrs by crystal violet staining based checkerboard assay.

The subject of experiment [21] is Enterococcus faecalis. Nature of the experiment: Synergistic antibiofilm activity against vancomycin-resistant Enterococcus faecalis ATCC 51575 in TSB broth assessed as dispersal of glucose-induced biofilm by measuring Bithionol MBEC preincubated with glucose for 48 hrs followed by compound addition and measured after 24 hrs by crystal violet staining based checkerboard assay.

Experiment [22] deals with Staphylococcus aureus. Nature of the experiment: Induction of drug resistance in methicillin-resistant Staphylococcus aureus USA 300 assessed as fold increase in MIC treated daily for 30 days. The settings on record: time 30.0 day.
For experiment [23], the system named is Staphylococcus aureus. The experiment is described as follows: Induction of drug resistance in methicillin-resistant Staphylococcus aureus ATCC 33592 assessed as fold increase in MIC treated daily for 30 days. The settings on record: time 30.0 day.

The structures appear in SMILES notation.

Two molecules from ChEMBL document CHEMBL5113477, “Membrane acting Povarov-Doebner derived compounds potently disperse preformed multidrug resistant Gram-positive bacterial biofilms” (Eur J Med Chem, 2022) can be followed below.

With `FC(F)(F)c1n[nH]cc1[C@@H]1Nc2ccc(S(F)(F)(F)(F)F)cc2[C@H]2[C@@H]3CC[C@@H](C3)[C@H]21`, the “fractional inhibitory concentration index (FICI)” value is 0.16 in the experiment with Enterococcus faecium [1]; 0.28 with Enterococcus faecium [4]; 0.28 with Enterococcus faecalis [11]; 0.25 in the experiment with Enterococcus faecalis [14]; 0.28 in the experiment on Staphylococcus aureus [15]; 0.38 in the experiment with Staphylococcus aureus [18]. Further, the MBEC with Enterococcus faecalis [2] came out at 1 µg/mL; in the experiment on Staphylococcus aureus [3], 8 µg/mL; with Enterococcus faecium [5], 1 µg/mL; with Enterococcus faecium [6], 4 µg/mL; with Staphylococcus aureus [7], 32 µg/mL; with Staphylococcus aureus [8], 1 µg/mL. Besides, the MBEC was found to be 2 µg/mL in the experiment with Enterococcus faecium [9]; 1 µg/mL in the experiment with Enterococcus faecalis [10]; 2 µg/mL in the experiment on Enterococcus faecalis [12]; 1 µg/mL with Enterococcus faecium [13]; 32 µg/mL in the experiment with Enterococcus faecium [16]; 32 µg/mL in the experiment on Enterococcus faecalis [17]. Besides, the MBEC with Staphylococcus aureus [19], with Staphylococcus aureus [20] and in the experiment with Enterococcus faecalis [21] was 2 µg/mL in each case.

Consider `C/C(=C\C(=O)OCCCCCCCCC(=O)O)C[C@@H]1OC[C@H](C[C@@H]2O[C@H]2[C@@H](C)[C@H](C)O)[C@@H](O)[C@H]1O`, for which the fold change (FC) was above 60 in the experiment on Staphylococcus aureus [22] and above 250 in the experiment with Staphylococcus aureus [23].
